Active and inactive are the calls of the source. The calls are words filed in the database; no cut-off is given here.
Assays:
Mus musculus [1] = species on record: Mus musculus; test: Activation of AMPK pathway in mouse 3T3L1 cells assessed as decrease in C/EBPgamma mRNA level measured after 24 hrs by RT-PCR method; format: cell-based
Mus musculus [2] = species on record: Mus musculus; test: Activation of AMPK pathway in mouse 3T3L1 cells assessed as reduction in C/EBPbeta protein expression at 2 mM after 4 hrs by Western blot analysis; format: cell-based
Mus musculus [3] = species on record: Mus musculus; test: Induction of AMPKalpha phosphorylation at Thr172 residue in mouse 3T3L1 cells at 5 uM after 4 hrs by Western blot analysis; format: cell-based
Mus musculus [4] = species on record: Mus musculus; test: Activation of AMPK pathway in mouse 3T3L1 cells assessed as decrease in PPARgamma mRNA level at 1 to 10 uM measured on day 3 post treatment by RT-PCR method; format: cell-based
3T3-L1 [5] = test: Lipid lowering activity in mouse 3T3L1 cells assessed as decrease in triglyceride level at 10 uM for 6 days by oil red o-staining based assay relative to control; format: functional; parameters: scale not given: the % may be the effect or the level left
Mus musculus [6] = species on record: Mus musculus; test: Activation of AMPK pathway in mouse 3T3L1 cells assessed as reduction in C/EBPdelta protein expression at 5 uM after 4 hrs by Western blot analysis; format: cell-based
3T3-L1 [7] = test: Lipid lowering activity in mouse 3T3L1 cells assessed as decrease in triglyceride level at 5 uM by oil red o-staining based assay; format: functional, cell-based; settings: TDE = time-dependent effect
Mus musculus [8] = species on record: Mus musculus; test: Activation of AMPK pathway in mouse 3T3L1 cells assessed as decrease in SCD1 mRNA level measured on day 6 post treatment by RT-PCR method; format: cell-based
3T3-L1 [9] = test: Cell cycle arrest in mouse 3T3L1 cells assessed as accumulation at G0/G1 phase at 5 uM after 24 hrs by propidium iodide staining based FACS analysis (reference value: 48.7%); format: functional
Mus musculus [10] = species on record: Mus musculus; test: Activation of AMPK pathway in mouse 3T3L1 cells assessed as decrease in SREBP-1c mRNA level at 1 to 10 uM measured on day 6 post treatment by RT-PCR method; format: cell-based
3T3-L1 [11] = test: Cell cycle arrest in mouse 3T3L1 cells assessed as decrease in S-phase at 1 to 10 uM after 24 hrs by propidium iodide staining based FACS analysis; format: functional
3T3-L1 [12] = test: Lipid lowering activity in mouse 3T3L1 cells assessed as decrease in triglyceride level treated 2 days post confluent for 9 days by oil red o-staining based assay; format: functional, cell-based
Mus musculus [13] = species on record: Mus musculus; test: Activation of AMPK pathway in mouse 3T3L1 cells assessed as reduction in C/EBPbeta protein expression at 5 uM after 4 hrs by Western blot analysis; format: cell-based
3T3-L1 [14] = test: Cytotoxicity against mouse 3T3L1 cells assessed as decrease in cell viability after 24 hrs by MTT assay; format: cell-based; settings: 3T3-L1, 24 h
3T3-L1 [15] = test: Cell cycle arrest in mouse 3T3L1 cells assessed as accumulation at G0/G1 phase at 1 uM after 24 hrs by propidium iodide staining based FACS analysis (reference value: 48.7%); format: functional
Mus musculus [16] = species on record: Mus musculus; test: Activation of AMPK pathway in mouse 3T3L1 cells assessed as induction of […] phosphorylation at Ser79 residue measured on day 6 post treatment by Western blot analysis; format: cell-based
HepG2 [17] = test: Cytotoxicity against human HepG2 cells assessed as decrease in cell viability after 24 hrs by MTT assay; format: cell-based; settings: HepG2, 24 h
3T3-L1 [18] = test: Cell cycle arrest in mouse 3T3L1 cells assessed as accumulation at G0/G1 phase at 10 uM after 24 hrs by propidium iodide staining based FACS analysis (reference value: 48.7%); format: functional
3T3-L1 [19] = test: Cytotoxicity against mouse 3T3L1 cells assessed as decrease in cell viability up to 10 uM measured up to 72 hrs by LDH release assay; format: cell-based; settings: 3t3-l1, 72 h
Mus musculus [20] = species on record: Mus musculus; test: Activation of AMPK pathway in mouse 3T3L1 cells assessed as reduction in C/EBPdelta protein expression at 2 mM after 4 hrs by Western blot analysis; format: cell-based
Mus musculus [21] = species on record: Mus musculus; test: Induction of AMPKalpha phosphorylation at Thr172 residue in mouse 3T3L1 cells measured on day 3 post treatment by Western blot analysis; format: cell-based
Mus musculus [22] = species on record: Mus musculus; test: Activation of AMPK pathway in mouse 3T3L1 cells assessed as decrease in C/EBPalpha mRNA level at 1 to 10 uM measured on day 3 post treatment by RT-PCR method; format: cell-based
3T3-L1 [23] = test: Lipid lowering activity in mouse 3T3L1 cells assessed as decrease in triglyceride level at 10 uM for 6 days by oil red o-staining based microscopic assay; format: functional, cell-based
3T3-L1 [24] = test: Inhibition of cell proliferation in mouse 3T3L1 cells assessed as reduction in adipogenic cocktail-induced mitotic cell clonal expansion at 1 to 10 uM after 72 hrs by hemocytometric method; format: functional, cell-based
Mus musculus [25] = species on record: Mus musculus; test: Activation of AMPK pathway in mouse 3T3L1 cells assessed as decrease in C/EBPbeta mRNA level measured after 24 hrs by RT-PCR method; format: cell-based
3T3-L1 [26] = test: Lipid lowering activity in mouse 3T3L1 cells assessed as inhibition of terminal differentiation stage by measuring decrease in triglyceride level at 5 uM treated on day 6 to 9 starting from 2 days post confluent by oil red o-staining based assay relative to control; format: functional
3T3-L1 [27] = test: Lipid lowering activity in mouse 3T3L1 cells assessed as inhibition of adipogenesis by measuring decrease in triglyceride level at 5 uM treated on day 0 to 3 starting from 2 days post confluent by oil red o-staining based assay relative to control; format: functional
3T3-L1 [28] = test: Lipid lowering activity in mouse 3T3L1 cells assessed as decrease in triglyceride level at 5 uM treated on day 0 to 9 starting from 2 days post confluent by oil red o-staining based assay relative to control; format: functional; parameters: scale not given: the % may be the effect or the level left
Mus musculus [29] = species on record: Mus musculus; test: Activation of AMPK pathway in mouse 3T3L1 cells assessed as decrease in FAS mRNA level measured on day 6 post treatment by RT-PCR method; format: cell-based
Mus musculus [30] = species on record: Mus musculus; test: Activation of AMPK pathway in mouse 3T3L1 cells assessed as decrease in […] mRNA level measured on day 6 post treatment by RT-PCR method; format: cell-based
3T3-L1 [31] = test: Lipid lowering activity in mouse 3T3L1 cells assessed as decrease in triglyceride level at 5 uM treated on day 0 to 6 starting from 2 days post confluent by oil red o-staining based assay relative to control; format: functional; parameters: scale not given: the % may be the effect or the level left
HepG2 [32] = test: Lipid lowering activity in human HepG2 cells assessed as decrease in triglyceride level at 10 uM for 6 days in presence of oleic acid by oil red o-staining based assay relative to control; format: functional; parameters: scale not given: the % may be the effect or the level left
3T3-L1 [33] = test: Lipid lowering activity in mouse 3T3L1 cells assessed as inhibition of lipogenesis by measuring decrease in triglyceride level at 5 uM treated on day 3 to 6 starting from 2 days post confluent by oil red o-staining based assay relative to control; format: functional
[34] = Solubility of the compound; format: physicochemical

Which Activity (Mus musculus [1]) does the source give for `Fc1c(-c2nc(NCCCN3CCCC3)c3ccccc3n2)[nH]c2ccccc12` here?
The Activity was “Dose-dependent effect”.

What about the Activity (Mus musculus [2]) of the same compound?
The Activity was “Active”.

And the Activity (Mus musculus [3])?
The Activity was “Active”.

And the Activity (Mus musculus [4])?
The Activity was “Active”.

What about the Activity (3T3-L1 [5]) of the same compound?
The Activity was 79.1%.

What about the Activity (Mus musculus [6]) of the same compound?
Its Activity is “Active”.

And the Activity (3T3-L1 [7])?
Its Activity is “Tde”.

And the Activity (Mus musculus [8])?
Its Activity is “Dose-dependent effect”.

And the Activity (3T3-L1 [9])?
The Activity was 66.1%.

What about the Activity (Mus musculus [10]) of the same compound?
Its Activity is “Active”.

What about the Activity (3T3-L1 [11]) of the same compound?
The Activity was “Active”.

And the Activity (3T3-L1 [12])?
Its Activity is “Dose-dependent effect”.

What about the EC50 (3T3-L1 [12]) of the same compound?
Its EC50 is 0.24 µM.

What about the Activity (Mus musculus [13]) of the same compound?
Its Activity is “Active”.

And the IC50 (3T3-L1 [14])?
Its IC50 is 37.7 µM.

What about the Activity (3T3-L1 [15]) of the same compound?
The Activity was 60.8%.

What about the Activity (Mus musculus [16]) of the same compound?
The Activity was “Active”.

And the IC50 (HepG2 [17])?
Its IC50 is 25.1 µM.

What about the Activity (3T3-L1 [18]) of the same compound?
Its Activity is 77.6%.

What about the Activity (3T3-L1 [19]) of the same compound?
The Activity was “Non-Toxic”.

What about the Activity (Mus musculus [20]) of the same compound?
Its Activity is “Active”.

And the Activity (Mus musculus [21])?
The Activity was “Active”.

What about the Activity (Mus musculus [22]) of the same compound?
The Activity was “Active”.

And the Activity (3T3-L1 [23])?
The Activity was “Active”.

What about the inhibition (3T3-L1 [24]) of the same compound?
Its inhibition is “Active”.

What about the Activity (Mus musculus [25]) of the same compound?
The Activity was “Dose-dependent effect”.

What about the inhibition at 5 µM (3T3-L1 [26]) of the same compound?
Its inhibition at 5 µM is 22.1%.

And the inhibition at 5 µM (3T3-L1 [27])?
Its inhibition at 5 µM is 71.1%.

What about the Activity (3T3-L1 [28]) of the same compound?
The Activity was 80.5%.

What about the Activity (Mus musculus [29]) of the same compound?
The Activity was “Dose-dependent effect”.

What about the Activity (Mus musculus [30]) of the same compound?
Its Activity is “Dose-dependent effect”.

What about the Activity (3T3-L1 [31]) of the same compound?
Its Activity is 74.2%.

And the Activity (HepG2 [32])?
Its Activity is 20.8%.

What about the inhibition at 5 µM (3T3-L1 [33]) of the same compound?
Its inhibition at 5 µM is 51.6%.

For `O=Cc1c(-c2nc3ccccc3c(=O)[nH]2)[nH]c2ccccc12`, which Activity (3T3-L1 [5]) is on record?
The Activity was 20.1%.

And the IC50 (3T3-L1 [14])?
The IC50 was over 50 µM.

What about the IC50 (HepG2 [17]) of the same compound?
The IC50 was over 50 µM.

What about the Activity (3T3-L1 [23]) of the same compound?
The Activity was “Active”.

And the solubility [34]?
The solubility was “Insoluble”.

What about the Activity (HepG2 [32]) of the same compound?
The Activity was 24.1%.
